Like-named read-outs stand apart in the source and are kept apart here.
Tests used:
[1] = test system: 1975 human lung cancer cells; assay: Lung cancer tumor mice model; type: in vivo, athymic nude mice; settings: for Inhibition of growth of lung cancer tumors relative to control: day 11
Procedure: (§1) Two models of cancer were generated: lung cancer and pancreatic cancer. About 5×10^6 of 1975 human lung cancer cells per 0.1 ml PBS per mouse were injected to male 7 weeks old athymic nude mice (n=30). The cells were injected, subcutaneously at one site on the back of the mice. About 5×10^6 PANC-1 human pancreatic cancer cells per 0.1 ml PBS per mouse were injected to male 7 weeks old athymic nude mice (n=22). The cells were injected, subcutaneously at one site on the back of the mice. When tumors were palpable (˜0.3-0.5 cm^3), the mice were randomly divided into three groups (Table 27) and the viruses and/or peptides were injected, twice a week for two weeks.
(§2) The first day of the study was defined as ‘Day 1’. The animals were administrated IP with either Vehicle (PBS or Formulation), lentiviral particles and SC with test items according to Table 27 on days 1, 4, 8 and 11. Body weight and tumor volume were checked on days 3, 7, 11, 14 and 17 (the latter was measured with a caliper). At the end of the experiment, on day 17, the mice were anesthetized and then sacrificed, and the tumors were removed, as well as lung, spleen, kidney and liver.

[2] = test system: PANC-1 human pancreatic cancer cells; assay: Pancreatic cancer tumor mice model; type: in vivo, athymic nude mice; settings: day 17
Procedure: as §1, §2

HIV-1 = test system: HIV-1
Procedure: This is a phase I/IIa pilot—Proof of Concept, dose escalation study.
Three cohorts of 3-6 patients (per cohort) received twice a week the Multiple Ascending Doses (MAD*) for up to 8 weeks to evaluate safety, clinical dose and preliminary efficacy for a duration of up to 6 weeks. Interim analysis was performed to decide on the safety of the low dose and continue to a higher dose SC administration. Study Duration: 1 year including screening, treatment and post treatment follow up
Cohort 1: Three to six (3-6) patients, each one received twice a week the decided MAD* for up to 8 weeks (up to 16 doses per patient). Subcutaneous dose: LOW; 0.05, mg/kg, with escalation to 0.2 mg/kg body weight at week 2-4. Cohort 2: Three to six (3-6) patients, each one received twice a week the decided MAD* for up to 8 weeks (up to 16 doses per patient). Subcutaneous dose: MEDIUM; 0.1 mg/kg, with escalation to 0.3 mg/kg body weight at week 2-4. Cohort 3: Three to six (3-6) patients, each one received twice a week the decided MAD* for up to 8 weeks (up to 16 doses per patient). Subcutaneous dose: HIGH; 0.2 mg/kg, with escalation to 0.4 mg/kg body weight at week 2-4. Interim analysis was performed to decide on the safety of all cohorts' doses and continue to a higher dose, up to 0.2 mg/kg for Cohort 1, up to 0.3 mg/kg for Cohort 2 and up to 0.4 mg/kg for Cohort 3, SC administration.
Effectiveness of Gammora assessed by reduced Viral load (by 0.5 LOG; Viral Suppression). • 1. Mean Change in CD4+ Cell Count as a Measure of Efficacy and Safety. • 2. Reduced viral protein p24 antigen. • 3. Functional Assessment of HIV Infection (FAHI) questionnaire.

[3] = Mortality, body weight and safety in tumor mice models; type: in vivo, athymic nude mice; settings: lung and pancreatic cancer models
Procedure: • 1. Mortality—every day • 2. Tumor measurements—twice a week • 3. Tumor weight post mortem • 4. Tissue preservation—kept in formalin or were snap freezed and kept at −80° C.
as §2

CD4 T-cell = assay: Phase I/IIa clinical trial: CD4 T-cell count; type: in vivo, human; settings: patients treated with INS (part II with lopinavir plus ritonavir)
Procedure: Reduced viral protein p24 antigen. • 3. Functional Assessment of HIV Infection (FAHI) questionnaire.
In addition, the preliminary results indicated treatment efficacy as measured by decrease in viral load in HIV patients. Most patients achieved significant reduction in viral load for up to 90% from baseline during the first 5 weeks of SC administration, meeting its exploratory endpoint. […] In this study, patients were treated for 5 weeks with a combined treatment of the subcutaneous composition as previous (0.2-0.4 mg/kg twice a week) and commercially available lopinavir 800 mg plus ritonavir 200 mg daily. The control group received only lopinavir 800 mg plus ritonavir 200 mg for additional 5 weeks.

[4] = Phase I/IIa clinical trial: safety and tolerability; type: in vivo, human; settings: HIV patients, 5 weeks SC administration
Excerpt: Patients are monitored for adverse events (AE) of the INS peptide such as rash, acute allergic reaction, bronchospasm, respiratory distress, and acute vascular leak syndrome. If a severe administration related reaction occurs, the drug administration is stopped. Blood chemistry, hematology, coagulation, and urinalysis are repeated on Days 1, 4, 8, 11, 15, 18, 22, 25 at the clinic visits.
The primary safety endpoint is the frequency, severity, and duration of side effects. Number of participants with treatment-related adverse events as assessed by CTCAE v4.03, are evaluated though study completion. Main adverse events evaluation is based on DADS Toxicity criteria (Division of AIDS DADS Table for Grading the Severity of Adult and Paediatric Adverse Events, Corrected Version 2.1): • Viral load • Lymphopenia/Neutropenia • Immuno-reaction over reaction/cytokine storm • Infection surrounding the administration site • Liver function (lab tests) • Kidney function (lab tests)
Incidence of withdrawal (drop-out rate) due to side effects is evaluated throughout the study.

[5] = 5 weeks INS 0.2-0.4 mg/kg SC twice a week + lopinavir 800 mg plus ritonavir 200 mg daily

For WTAVQMAVFIHNFKRK [INS], the “Inhibition of growth of lung cancer tumors relative to control” value ([1]; lentiviral particles IP + INS peptide 1.25 mg/kg SC on days 1, 4, 8, 11) was 50%, the “Inhibition of growth of lung cancer tumors relative to control” value ([1]; lentiviral particles IP + INS peptide 2.5 mg/kg SC on days 1, 4, 8, 11) was 50% and the “Comparison of doses at the end of the experiment” value ([1]; day 17, INS 1.25 mg/kg versus 2.5 mg/kg, with lentiviral particles) was “better results than with INS 2.5 mg/kg”. For the same sequence, the “Reduction of weight of tumors relative to control” value ([2]; lentiviral particles + INS 1.25 mg/kg SC) was 25%, the “Reduction of weight of tumors relative to control” value ([2]; lentiviral particles + INS 2.5 mg/kg SC) was 50% and the “HIV-1 RNA count” value (HIV-1; [5]) was “below 300 copies/mL”. The “Reduction in viral load from baseline” value (HIV-1; [5]) was “up to 99%”, the “Reduction in viral load from baseline” value (HIV-1; most patients, first 5 weeks of SC administration, INS alone) was “up to 90%” and the Mortality ([3]; 17 days) was “No animal was found dead or in morbid state”. The Body weight ([3]; mice gained weight as expected) was “no differences between groups”, the “Increase of CD4 T-cell count relative to baseline” value (CD4 T-cell) was “up to 97%” and the “Side effects and harm to immune system (monitored by CD4 cells)” value [4] was “no side effects and no harm to immune system”.
